Laboratory results reported in article PMC3566143, “Pantothenamides Are Potent, On-Target Inhibitors of Plasmodium falciparum Growth When Serum Pantetheinase Is Inactivated” (PLoS ONE, 2013).
Where two headings read alike, the source gives them in different places.

Assays:
[1] = test system: erythrocytic stage P. falciparum parasites (strain 3D7); assay: SYBR Green I-based in vitro growth assay (96 h); type: cell-based, Plasmodium falciparum; settings: for IC50: 1 µM pantothenate, 96 h; for effect on parasite growth in fresh Albumax-complete RPMI: fresh medium, up to 200 µM (highest concentration tested)
Procedure: Erythrocytic stage P. falciparum parasites (strain 3D7) were maintained within human erythrocytes in continuous culture essentially as described previously, [25]. P. falciparum-infected erythrocytes were routinely cultured in RPMI 1640 medium supplemented with 25 mM HEPES, 20 mM D-glucose, 200 µM hypoxanthine, 24 mg/L gentamycin and Albumax II (0.6%, w/v), which, hereafter is referred to as Albumax-complete RPMI. For several days prior to carrying out the assays testing the effect of compounds on the growth of P. falciparum in medium supplemented with human serum (instead of Albumax II), the parasites were cultured in the same medium mentioned above, except that human serum (10%, v/v, pooled from different blood donors) was used rather than Albumax II. This medium is hereafter referred to as human serum-complete RPMI.
The in vitro antiplasmodial activity of test compounds was determined using the malaria SYBR Green I-based fluorescence assay described by Smilkstein et al., with minor modifications. Briefly, P. falciparum-infected erythrocytes were incubated in culture medium containing two-fold dilutions of the test compounds in 96-well microtiter plates. Assays were initiated with ring-stage P. falciparum-infected erythrocytes at a hematocrit and parasitemia of 1%. Wells containing infected erythrocytes in the presence of chloroquine (0.25–2 µM) served as zero growth controls and wells containing infected erythrocytes in the absence of chloroquine or test compounds served as 100% parasite growth controls. Plates were incubated at 37°C under an atmosphere of 96% nitrogen, 3% carbon dioxide and 1% oxygen for 96 h, before 100 µL from each well was mixed with 100 µL of SYBR Safe DNA gel stain (0.2 µL/mL) in 20 mM Tris, pH 7.5, 5 mM ethylenediaminetetraacetic acid (EDTA), 0.008% (w/v) saponin, 0.08% (v/v) Triton X-100, in a second 96-well microtitre plate. Fluorescence was measured using a FLUOstar OPTIMA multidetection microplate reader from BMG LABTECH with excitation and emission wavelengths of 490 and 520 nm, respectively. The 50% inhibitory concentration (IC50) of each test compound under each test condition was calculated by fitting the data to a sigmoidal curve (typically y = a/(1+ (x/x0)^b) using nonlinear least squares regression (SigmaPlot, Systat Software) and averaging the IC50 estimates from independent experiments.
The antiplasmodial activity of test compounds was assessed in media that had been subjected to different pre-incubations. “Fresh” medium refers to medium that was stored for a maximum of 48 h at 4°C, and incubated at 37°C for a maximum of 1 h, prior to use. “Aged” medium refers to medium that was stored for a minimum of one week at 4°C and incubated intermittently at 37°C, or medium incubated continuously at 37°C for 40 h soon after preparation. As indicated at the relevant positions within the “Results” section, for some experiments the fresh medium used was, more specifically, medium used immediately following preparation, and the aged medium used was, more specifically, medium that was incubated at 37°C for 40 h immediately prior to use.

P. falciparum PanK = assay: [14C]pantothenate phosphorylation assay with P. falciparum lysate; type: biochemical, Plasmodium falciparum; settings: 100 µM pantothenamide, 0.2 µM [14C]pantothenate, 10 min
Procedure: To assess the effect of the pantothenamides on pantothenate phosphorylation by P. falciparum PanK, the phosphorylation of [^14C]pantothenate by P. falciparum lysates was measured in the presence and absence of a single concentration of each pantothenamide. P. falciparum lysate was prepared from trophozoite stage parasites “isolated” from their host erythrocyte by treatment with 0.05% (w/v) saponin (essentially as described by Saliba et al.), and washed (five times) in HEPES-buffered saline (125 mM NaCl, 5 mM KCl, 20 mM D-glucose, 25 mM HEPES, 1 mM MgCl2, pH 7.1). Lysates were prepared as described by van Schalkwyk et al., except that 10 mM potassium phosphate, pH 7.4 (rather than 10 mM Tris, pH 7.4), was used to lyse the cells. Aliquots of lysate were stored at −20°C. The concentration of cell lysates was determined from cell counts made using an improved Neubauer hemocytometer.
[^14C]Pantothenate phosphorylation was assayed using the Somogyi reagent essentially as described by Saliba et al., except that pantothenate phosphorylation was terminated by heat denaturation (rather than acid denaturation) of the protein in reaction aliquots. Briefly, P. falciparum lysate was added to solutions (at 37°C) of 50 mM Tris, 5 mM ATP, 5 mM MgCl2, at pH 7.4, containing [^14C]pantothenate (at a final concentration of 0.01 µCi/mL, or 0.2 µM), and a pantothenamide (at a final concentration of 100 µM) or an equivalent volume of solvent. Typically, lysate prepared from 5.4–6.5×10^7 parasites was present in each mL of reaction solution. Zero phosphorylation control reactions were prepared by adding a corresponding volume of 10 mM potassium phosphate instead of parasite lysate. Following a ten minute incubation at 37°C (a period during which pantothenate phosphorylation increased linearly with time in the absence of inhibitors) 200 µL aliquots of the [^14C]pantothenate phosphorylation reactions were transferred in duplicate to microcentrifuge tubes, and immediately incubated at 95°C for 10 min to terminate phosphorylation. Terminated reaction samples were centrifuged at 15 800×g for 10 min to pellet the denatured protein, before two aliquots of each supernatant (typically 80 µL) were transferred to new microcentrifuge tubes. To one aliquot, 500 µL Somogyi reagent was added, and to the other, 500 µL water was added. The samples were processed for determination of phosphorylated [^14C]pantothenate as described previously.

[2] = Plasmodium falciparum, 3D7, 96 h, fresh Albumax-complete RPMI, read-out: IC50 against P. falciparum, fresh medium, 1 μM pantothenate
[3] = Plasmodium falciparum, 3D7, aged Albumax-complete RPMI (37°C for 40 h), read-out: IC50 against P. falciparum, aged medium, 1 μM pantothenate
[4] = fresh Albumax-complete RPMI, IC50 at 100 µM pantothenate / IC50 at 1 µM pantothenate

SMILES	IC50 [1, 2] [µM]	IC50 [1, 3] [µM]	Inhibition of pantothenate phosphorylation at 100 μM (P. falciparum PanK) [%]	other results
CCOCCNC(=O)CCNC(=O)[C@H](O)C(C)(C)CO [Compound 22]	162 ± 20	1.4 ± 0.1	100	–
CCCCCCCNC(=O)CCNC(=O)[C@H](O)C(C)(C)CO [Compound 2]	> 200	–	99 ± 1	–
CSCCCNC(=O)CCNC(=O)[C@H](O)C(C)(C)CO [Compound 18]	76 ± 12	0.23 ± 0.06	98 ± 2	–
CC(CCc1ccccc1)NC(=O)CCNC(=O)[C@H](O)C(C)(C)CO (some centres unmarked) [Compound 5]	> 200	> 200	94 ± 3	–
CSCCNC(=O)CCNC(=O)[C@H](O)C(C)(C)CO [Compound 14]	> 200	> 200	100	effect on parasite growth in fresh Albumax-complete RPMI [1]: little effect
CC(C)=CCC/C(C)=C/CNC(=O)CCNC(=O)[C@H](O)C(C)(C)CO [Compound 13]	66 ± 4	150 ± 5	100	fold-increase in IC50 following supplementation with 100 µM pantothenate, fresh medium [1, 4]: 1±0.1 times
CCSCCNC(=O)CCNC(=O)[C@H](O)C(C)(C)CO [Compound 17]	44 ± 5	0.067 ± 0.002	95 ± 5	–
CC(C)(CO)[C@@H](O)C(=O)NCCC(=O)N1CCN(Cc2ccccc2)CC1 [Compound 7]	> 200	> 200	98 ± 2	–
COc1cc(CNC(=O)CCNC(=O)[C@H](O)C(C)(C)CO)cc(OC)c1OC [Compound 6]	> 200	> 200	96 ± 2	–
CC(C)(CO)[C@@H](O)C(=O)NCCC(=O)NCCN1CCOCC1 [Compound 8]	> 200	> 200	94 ± 5	–
CCOCCCNC(=O)CCNC(=O)[C@H](O)C(C)(C)CO [Compound 19]	49 ± 8	0.27 ± 0.06	96 ± 4	fold-increase in IC50 following supplementation with 100 µM pantothenate, aged medium ([1]; aged Albumax-complete RPMI, IC50 at 100 µM pantothenate / IC50 at 1 µM pantothenate): 24±1 times; fold-increase in IC50 following supplementation with 100 µM pantothenate, fresh medium [1, 4]: 1.7±0.4 times
CCCNC(=O)CCNC(=O)[C@H](O)C(C)(C)CO [Compound 11]	134 ± 22	0.34 ± 0.01	100	–
CC1C(NC(=O)CCNC(=O)C(O)C(C)(C)CO)CC2CC1C2(C)C (centres unmarked) [Compound 10]	> 200	> 200	100	–
COCCCNC(=O)CCNC(=O)[C@H](O)C(C)(C)CO [Compound 21]	166 ± 18	1.9 ± 0.5	98 ± 2	–
COc1ccc(CCNC(=O)CCNC(=O)[C@H](O)C(C)(C)CO)cc1OC [Compound 4]	> 200	> 200	100	–
CC(C)(CO)[C@@H](O)C(=O)NCCC(=O)NCCc1ccccc1 [Compound 3]	–	–	100	IC50 ([1]; Plasmodium falciparum, 3D7, 96 h, aged Albumax-complete RPMI, read-out: IC50 against P. falciparum in aged medium): 0.02 ± 0.002 µM
COc1ccc(CNC(=O)CCNC(=O)[C@H](O)C(C)(C)CO)cc1 [Compound 9]	> 200	–	99 ± 1	–
CC(C)(CO)[C@@H](O)C(=O)NCCC(=O)NCCCO [Compound 20]	> 200	–	94 ± 6	effect on parasite growth in fresh Albumax-complete RPMI [1]: without effect
CCCCCNC(=O)CCNC(=O)[C@H](O)C(C)(C)CO [Compound 1]	124 ± 15	2 ± 0.2	99 ± 1	–
CC(C)(CO)[C@@H](O)C(=O)NCCC(=O)NCCO [Compound 16]	> 200	–	100	effect on parasite growth in fresh Albumax-complete RPMI [1]: without effect
COCCNC(=O)CCNC(=O)[C@H](O)C(C)(C)CO [Compound 15]	> 200	> 200	100	effect on parasite growth in fresh Albumax-complete RPMI [1]: lacked antiplasmodial activity
CC(C)(CO)[C@@H](O)C(=O)NCCCO [pantothenol, reference compound]	–	–	–	inhibition at 2000 µM ([1]; Plasmodium falciparum, 3D7, 2 mM, Albumax-complete RPMI supplemented with 100 µM pantothenate, fresh and aged, read-out: inhibition of growth at highest concentration tested with 100 µM pantothenate): < 50%; effect of additional Albumax II on activity in aged medium ([1]; aged medium + additional Albumax II (0.6%, w/v)): unaffected; activity in aged versus fresh Albumax-complete RPMI ([1]; aged vs fresh medium, P = 0.32): comparable in aged and fresh medium
